Measured values reported in patent US20260060982A1, “USE OF BTK INHIBITOR AND SINGLE-DOSE DRUG” (HUBEI BIO-PHARMACEUTICAL INDUSTRIAL TECHNOLOGICAL INSTITUTE …, priority 2023, published 2026).

Experiments:
[1] = tested on: collagen-induced arthritis in DBA/1 mice; assay: Collagen-induced arthritis (CIA) model in mice; format: in vivo; settings: for average body weight: after day 33
Procedure: Clinical symptoms of arthritis were induced in mice by injecting collagen emulsion into the tail of mice. The specific steps were as follows:
DBA/1 mice were randomly divided into 6 groups, with 10 mice in each group except the blank control group (5 mice). […] The day of the first immunization was recorded as day 0, and the subsequent days were marked in sequence. DBA/1 mice were anesthetized with isoflurane and injected subcutaneously with 50 μl of the prepared collagen emulsion (containing 200 μg of CII) at the tail (2 cm to 3 cm from the base of the tail). On day 21, the same volume of collagen emulsion was injected into the tail in the same way.
On day 28, when the average clinical score reached 1 to 2, the mice were randomly redivided into 4 treatment groups (10 mice per group) and a blank vehicle control group (10 mice per group) according to body weight and score. […] The administration was performed once daily for 14 days by gavage at 10 mL/kg. After the administration, the clinical score curve of each animal in each group was analyzed to calculate the area under the curve (AUC). The inhibition rate of each administration group relative to the blank vehicle control was calculated based on the average AUC between groups.
Clinical observation: From 7 days before immunization to 21 days after immunization, the basic health status and weight changes of DBA/1 mice were observed daily (recorded twice a week). After day 22, the health status, disease incidence, and weight changes of the mice were observed daily (recorded every two days) until the end of the experiment.
When mice began to develop symptoms of arthritis (clinical symptoms of arthritis appeared), they were scored on a scale from 0 to 4 based on the severity of the lesions (redness, swelling, joint deformation), with a maximum score of 4 for each limb and a maximum score of 16 for each animal. The scoring was performed at least three times a week.
Pathology: On day 42, mice were euthanized. The two hind limbs of the mice were taken, soaked in 10% formalin solution, decalcified with formic acid solution, embedded in paraffin, sectioned, stained with hematoxylin-eosin (HE), and observed under a microscope. The degree of joint damage was evaluated from four aspects: inflammatory cell infiltration, pannus formation, cartilage damage, and bone resorption, and scored on a scale from 0 to 4.

[2] = Phase I single-dose clinical trial, safety and tolerability; format: in vivo, human; settings: compound (I) group, all doses (n = 80)
Source text: (§1) In this example, 96 healthy Chinese aged 18 to 45 were recruited as subjects. The trial included 8 dose groups, each with 12 subjects, who were randomly divided into groups, 10 of whom received compound (I) capsules (i.e., the trial group) and 2 received placebo capsules (containing no compound (I), i.e., the control group or placebo group). […] The dosages involved in this example were all the amount of compound (I). Based on safety and exploration factors, the human MRSD (maximum recommended starting dose) of compound (I) capsule used in the example was set at 10 mg, and the human maximum recommended dose was set at 800 mg. A total of 8 dose groups were set up between the initial dose and the maximum dose (see Table 2 for the dose escalation scheme of the clinical trial): 10 mg, 25 mg, 50 mg, 100 mg, 200 mg, 400 mg, 600 mg, and 800 mg, and single administration safety and tolerability trials were conducted group by group.
(§2) The subjects fasted for 10 h before administration and took a single oral administration of compound (I) capsule or placebo capsule at the prescribed dose on the morning of the trial day. Water was prohibited within 2 h after the administration and food was prohibited within 4 h after the administration. Blood sample collection: 3.0 ml of venous blood was collected before administration (within 45 min) and at 10 min, 20 min, 0.5 h, 1 h, 1.5 h, 1.75 h, 2 h, 2.5 h, 3 h, 3.5 h, 4 h, 6 h, 8 h, 12 h, 16 h, 24 h, 36 h, 48 h, and 72 h after administration. Urine sample collection: Urine samples were collected before administration (within 2 h) and at 0-2 h, 2-4 h, 4-8 h, 8-12 h, 12-16 h, 16-24 h, 24-48 h, and 48-72 h after administration. Feces collection: Feces were collected before administration (within 3 days) and at 0-24 h, 24-48 h, and 48-72 h after administration.
Safety data set: including all subjects who received at least one administration and had post-administration safety data. […]

[3] = Phase I single-dose clinical trial, pharmacokinetics; format: in vivo; settings: human, plasma, oral, single administration, 10 mg to 800 mg
Source text: as §1, §2
The analysis was performed using the Per-protocol set. The time-dependent plasma concentration data of compound (I) capsules were processed using WinNonlin version 6.4. The main pharmacokinetic parameters of each subject were calculated using a non-compartmental model, and the linear relationship between dose and Cmax and AUC0-t was analyzed using a power function model.

Cmax ([3]; read-out: Cmax, range over dose groups): 46.1 to 5060 ng/mL | MRT ([3]; read-out: MRT, range over dose groups): 1.53 to 4.25 h | half-life ([3]; read-out: T1/2, range over dose groups): 0.847 to 8.67 h | Tmax ([3]; read-out: Tmax, range over dose groups): 1.03 to 2 h
SMILES: C=CC(=O)N1CCC[C@@H](n2nc(-c3ccc(Oc4ccccn4)cc3)c3c(N)n[nH]c(=O)c32)C1 [compound (I), (R)-1-(1-acryloylpiperidin-3-yl)-4-amino-3-(4-(pyridin-2-yloxy)phenyl)-1H-pyrazolo[3,4-d]pyridazin-7(6H)-one]
inflammation inhibition rate (AUC of clinical score vs blank vehicle control) ([1]; 1 mg/kg once daily by gavage for 14 days): 65.5% | average body weight ([1]; 1 mg/kg): remained basically unchanged | inflammation inhibition rate (AUC of clinical score vs blank vehicle control) ([1]; 3 mg/kg once daily by gavage for 14 days): 82.4% | average body weight ([1]; 3 mg/kg): increased | inflammation inhibition rate (AUC of clinical score vs blank vehicle control) ([1]; 10 mg/kg once daily by gavage for 14 days): 83.9% | average body weight ([1]; 10 mg/kg): increased | pathology of foot joint bone tissue ([1]; three dose groups (1, 3, and 10 mg/kg), day 42): only mild inflammation | subjects with TEAEs [2]: 25 | subjects with TEAEs, share [2]: 31.3% | treatment-emergent adverse events (TEAE), number of events [2]: 35
